Assay results: patent publication US20070003641A1, “Synergistic pharmaceutical compositions useful in prevention and treatment of beta-amyloid protein-induced disease” (priority 2005, published 2007)

Experiments:
HUVEC cells = assay: MTT reduction assay: protection of HUVEC cells from βA insult; assay type: cell-based, human
Description: (§1) The neuronal cell protection by the extract or combination of extracts was determined by observing the differences in the cell viability of βA (both 25-35 and 1-42) treated cells, βA (both 25-35 and 1-42) treated cells further including an extract or a combination of extracts according to the invention, and a DMSO control.
(§2) The degree of βA insult was measured by 3-[4,5-dimethylthiazol-2-yl]-2,5-diphenyltetrazolium bromide (MTT) reduction assay. See Kim et al., Neurosci Lett 303, 57 (2001), Park et al., J Nat Prod 65, 1227 (2002) and Kim et al., Plant Medica 68, 375 (2002). The detection of cell growth or cell death can be determined by observing the conversion of MTT to the colored product, MTT formazan, the concentration of which can be measured colorimetrically at 550 nm. See Kim et al., Neurosci Lett 303, 57 (2001).
(§3) The extract or combination of extracts' ability to protect PC12 cells from βA insult was investigated according to the published procedure. See Kim et al., Neurosci Lett 303, 57 (2001), Park et al., J Nat Prod 65, 1227 (2002) and Kim et al., Plant Medica 68, 375 (2002). For the bioassay, 90 μL of exponentially growing cells (2,000 cells per mL) were plated in 96-well tissue culture plates. Cells were incubated with βA(1-42) (2.0 μg/mL, prepared from a stock solution (1.0 mg/mL in dimethyl sulfoxide (DMSO))) and test compound at various concentrations (50, 10, 2, 0.4, and 0.08 μg/mL) for 24 hours. The final DMSO concentration was less than 1%. The extract or combination of extracts' ability to protect PC12 cells from βA(1-42) insult was determined by measuring the cell's potential to reduce MTT with respect to the treatment of cells with 1% DMSO only and the treatment of cells with […] βA(1-42) and 1% DMSO without the presence of test extract or a combination of extracts. After the incubation of cells in MTT solution (25 μL per well, 1 mg/mL stock solution) for 1 h at 37° C., 100 μL Lysing buffer (50% aqueous dimethylformamide (DMF) and 20% sodium dodecyl sulfate (SDS) at pH 4.7) was added and incubated overnight at 37° C. Optical density of the resulting solutions was colorimetrically determined at 550 nm using a microplate reader. Dose-response curves were prepared and the results were expressed as ED50 values in μg/mL (Table 1). Curcumin and (±)-α-tocopherol (vitamin-E) were used as reference compounds. Bioassay using βA(25-35) was similarly performed. The extract or combination of extracts' ability to protect IMR32 and HUVEC cells from βA insult was also similarly investigated.
(§4) PC12 cells were obtained from the American Type Culture Collection (Rockville, Md.). Cells were routinely cultured on a polystyrene-coated Corning tissue culture plate (Corning, New York, N.Y.). Culture media and supplements were obtained from Life Technologies (Grand Island, N.Y.). Cells were maintained in high glucose Dulbecco's modified Eagle medium, 10% horse serum, 5% fetal calf serum, and 1% penicillin/streptomycin. See Kim et al., Neurosci Lett 303, 57 (2001), Park et al., J Nat Prod 65, 1227 (2002) and Kim et al., Plant Medica 68, 375 (2002). IMR32 human neuroblastoma cells were obtained from the American Type Culture Collection (ATCC). Normal umbilical human vein endothelial (HUVEC) cells were obtained from Clonetics (San Diego, Calif.). Cells were routinely cultured on a polystyrene-coated Corning tissue culture plate (Corning, New York, N.Y.). IMR32 cells were grown in high glucose Dulbecco's Modified Eagle Medium (DMEM), 10% horse serum, 5% fetal calf serum, and 1% penicillin/streptomycin. HUVEC cells were grown in EGM-2 Bullet Kit (Clonetics, San Diego, Calif.). For the bioassay using βA(25-35), 100 μl of exponentially growing IMR32 and HUVEC cells (2,000 and 500 cells per ml, respectively) were plated in 96-well tissue culture plates. A different number of cells per ml was used for the experiment because of the cell size difference of HUVEC cells with respect to IMR32 cells and PC12 cells. […]

[1] = system: IMR32 human neuroblastoma cells; assay: MTT reduction assay: protection of IMR32 cells from βA insult; assay type: cell-based
Description: as §1, §2, §3, §4

PC12 cells = assay: MTT reduction assay: protection of PC12 cells from βA insult; assay type: cell-based; settings: 24 hours
Description: as §1, §2, §3, §4

[2] = system: PC12, IMR32, and HUVEC cells; assay: Cell protection from βA peptide insult, stated in words; assay type: cell-based
Description: as §1
as §2, with “See Kim et al., Neurosci Lett 303, 57 (2001).” left out
The extract or combination of extracts' ability to protect PC12 cells from βA insult was investigated according to the published procedure. […] The extract or combination of extracts' ability to protect PC12 cells from βA(1-42) insult was determined by measuring the cell's potential to reduce MTT with respect to the treatment of cells with 1% DMSO only and the treatment of cells with 1.0 μg/mL βA(1-42) and 1% DMSO without the presence of test extract or a combination of extracts. […] Optical density of the resulting solutions was colorimetrically determined at 550 nm using a microplate reader. […]

| Molecule | ED50, cell protection against βA insult (HUVEC cells; βA(1-42)) | ED50, cell protection against βA insult (HUVEC cells; βA(25-35)) | ED50, cell protection against βA insult ([1]; βA(1-42)) | ED50, cell protection against βA insult ([1]; βA(25-35)) | ED50, cell protection against βA insult (PC12 cells; βA(1-42)) | ED50, cell protection against βA insult (PC12 cells; βA(25-35)) | protection of cells from βA peptide insult (in words) [2] |
| --- | --- | --- | --- | --- | --- | --- | --- |
| CCCCC/C=C/C(=O)CCc1ccc(O)c(OC)c1 [6-shogaol [6S], 6-shogaol] | 5.5 µg/mL | 5.9 µg/mL | 6.1 µg/mL | 6.3 µg/mL | 5.7 µg/mL | 5.4 µg/mL | – |
| CCCCCCCCCCC(=O)CCc1ccc(O)c(OC)c1 [(45), [9]-dihydroshogaol] | – | – | – | – | – | – | effectively protected cells from βA peptide insult |
| CCCCCCCCC=CC(=O)CCc1ccc(O)cc1 [(50), [9]-demothoxyshogaol] | – | – | – | – | – | – | effectively protected cells from βA peptide insult |
| CC(C)c1cc2c(c(O)c1O)[C@@]13CCCC(C)(C)[C@@H]1[C@@H](O)C2OC3=O [RS-7] | 3.5 µg/mL | 3.2 µg/mL | 3.4 µg/mL | 2.9 µg/mL | 3.1 µg/mL | 2.3 µg/mL | – |
| CC(C)c1cc(C=O)c2c(c1O)OC(=O)[C@@]21CCCC(C)(C)[C@@H]1C=O [RS-8] | 16.7 µg/mL | 15.5 µg/mL | 14.6 µg/mL | 15.2 µg/mL | 13.3 µg/mL | 11.6 µg/mL | – |
| CC(C)c1cc2c(c(O)c1O)[C@@]13CCCC(C)(C)[C@@H]1[C@H](OC3=O)[C@H]2O [RS-9] | 34.2 µg/mL | 31.0 µg/mL | 35.5 µg/mL | 38.3 µg/mL | 35.4 µg/mL | 33.2 µg/mL | – |
| COc1cc(C=CC(=O)CC(=O)C=Cc2ccc(O)c(OC)c2)ccc1O [curcumin, 1,7-bis(4-hydroxy-3-methoxyphenyl)-1,6-heptadiene-3,5-dione, reference compound] | 6.8 µg/mL | 6.2 µg/mL | 6.3 µg/mL | 7.4 µg/mL | 7.1 µg/mL | 6.7 µg/mL | – |
| (±)-α-tocopherol [reference compound] | >50 µg/mL | >50 µg/mL | >50 µg/mL | >50 µg/mL | >50 µg/mL | >50 µg/mL | – |
